Data from PubChem BioAssay (NCI).
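Cells were grown in 96-well plates and exposed to each compound for 48 hours at five concentrations; endpoints were interpolated linearly between bracketing concentrations, or set to the highest concentration if not reached. TGI marks complete inhibition of growth.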

How the values were obtained:
Experiment in all cases: NCI tumour cell line growth inhibition, 48 h
SR leukemia = test system: SR leukemia
SN12C renal = test system: SN12C renal
HS 578T breast = test system: HS 578T breast
A549 NSCLC = test system: A549 NSCLC
U251 CNS = test system: U251 CNS
NCI-H23 lung = test system: NCI-H23 lung
T-47D breast = test system: T-47D breast
BT-549 breast = test system: BT-549 breast
HCC-2998 colon = test system: HCC-2998 colon
DU-145 prostate = test system: DU-145 prostate
KM12 colon = test system: KM12 colon
SK-MEL-5 melanoma = test system: SK-MEL-5 melanoma
NCI-H226 lung = test system: NCI-H226 lung
MDA-N = test system: MDA-N
NCI-H522 lung = test system: NCI-H522 lung
EKVX NSCLC = test system: EKVX NSCLC
SF-268 CNS = test system: SF-268 CNS
PC-3 prostate = test system: PC-3 prostate
COLO 205 colon = test system: COLO 205 colon
SK-OV-3 ovarian = test system: SK-OV-3 ovarian
786-0 renal = test system: 786-0 renal
SNB-19 CNS = test system: SNB-19 CNS
TK-10 renal = test system: TK-10 renal
MOLT-4 leukemia = test system: MOLT-4 leukemia
CCRF-CEM leukemia = test system: CCRF-CEM leukemia
OVCAR-8 ovarian = test system: OVCAR-8 ovarian
HL-60(TB) leukemia = test system: HL-60(TB) leukemia
UACC-257 melanoma = test system: UACC-257 melanoma
MDA-MB-435 = test system: MDA-MB-435
LOX IMVI melanoma = test system: LOX IMVI melanoma
NCI/ADR-RES ovarian = test system: NCI/ADR-RES ovarian
UO-31 renal = test system: UO-31 renal
HOP-92 NSCLC = test system: HOP-92 NSCLC
OVCAR-3 ovarian = test system: OVCAR-3 ovarian
M14 melanoma = test system: M14 melanoma
IGROV1 ovarian = test system: IGROV1 ovarian
HT29 colon = test system: HT29 colon
MCF7 breast = test system: MCF7 breast
RXF 393 renal = test system: RXF 393 renal
SNB-75 CNS = test system: SNB-75 CNS
ACHN renal = test system: ACHN renal
MDA-MB-231 breast = test system: MDA-MB-231 breast
SK-MEL-2 melanoma = test system: SK-MEL-2 melanoma
SF-539 CNS = test system: SF-539 CNS
A498 renal = test system: A498 renal
K-562 leukemia = test system: K-562 leukemia
SF-295 CNS = test system: SF-295 CNS
SK-MEL-28 melanoma = test system: SK-MEL-28 melanoma
RPMI-8226 leukemia = test system: RPMI-8226 leukemia
HCT-15 colon = test system: HCT-15 colon
OVCAR-4 ovarian = test system: OVCAR-4 ovarian
HOP-62 NSCLC = test system: HOP-62 NSCLC
UACC-62 melanoma = test system: UACC-62 melanoma
OVCAR-5 ovarian = test system: OVCAR-5 ovarian
MALME-3M melanoma = test system: MALME-3M melanoma
NCI-H460 lung = test system: NCI-H460 lung
HCT-116 colon = test system: HCT-116 colon

**Q.** How did the TGI (SR leukemia) turn out when `COc1cc(-c2cc(=O)c3c(O)c(OC)c(OC)c(OC)c3o2)cc(OC)c1OC` was run?
**A.** Its TGI is greater than 100 µM.

**Q.** And the TGI (SN12C renal)?
**A.** The TGI was greater than 100 µM.

**Q.** What about the TGI (HS 578T breast) of the same compound?
**A.** Its TGI is greater than 20.7 µM.

**Q.** And the TGI (A549 NSCLC)?
**A.** The TGI was greater than 100 µM.

**Q.** And the TGI (U251 CNS)?
**A.** Its TGI is greater than 22.2 µM.

**Q.** What about the TGI (NCI-H23 lung) of the same compound?
**A.** Its TGI is greater than 62.5 µM.

**Q.** And the TGI (T-47D breast)?
**A.** The TGI was greater than 74.3 µM.

**Q.** And the TGI (BT-549 breast)?
**A.** The TGI was greater than 100 µM.

**Q.** And the TGI (HCC-2998 colon)?
**A.** The TGI was greater than 100 µM.

**Q.** What about the TGI (DU-145 prostate) of the same compound?
**A.** The TGI was greater than 100 µM.

**Q.** What about the TGI (KM12 colon) of the same compound?
**A.** The TGI was greater than 100 µM.

**Q.** What about the TGI (SK-MEL-5 melanoma) of the same compound?
**A.** Its TGI is greater than 100 µM.

**Q.** And the TGI (NCI-H226 lung)?
**A.** The TGI was greater than 80.1 µM.

**Q.** What about the TGI (MDA-N) of the same compound?
**A.** The TGI was greater than 100 µM.

**Q.** What about the TGI (NCI-H522 lung) of the same compound?
**A.** The TGI was 98.6 µM.

**Q.** And the TGI (EKVX NSCLC)?
**A.** The TGI was greater than 100 µM.

**Q.** What about the TGI (SF-268 CNS) of the same compound?
**A.** Its TGI is greater than 100 µM.

**Q.** What about the TGI (PC-3 prostate) of the same compound?
**A.** Its TGI is greater than 100 µM.

**Q.** What about the TGI (COLO 205 colon) of the same compound?
**A.** Its TGI is greater than 100 µM.

**Q.** And the TGI (SK-OV-3 ovarian)?
**A.** Its TGI is 26 µM.

**Q.** What about the TGI (786-0 renal) of the same compound?
**A.** The TGI was 15.6 µM.

**Q.** What about the TGI (SNB-19 CNS) of the same compound?
**A.** Its TGI is greater than 78.7 µM.

**Q.** What about the TGI (TK-10 renal) of the same compound?
**A.** Its TGI is greater than 57.6 µM.

**Q.** And the TGI (MOLT-4 leukemia)?
**A.** The TGI was greater than 100 µM.

**Q.** What about the TGI (CCRF-CEM leukemia) of the same compound?
**A.** The TGI was greater than 100 µM.

**Q.** And the TGI (OVCAR-8 ovarian)?
**A.** Its TGI is greater than 100 µM.

**Q.** What about the TGI (HL-60(TB) leukemia) of the same compound?
**A.** Its TGI is greater than 100 µM.

**Q.** What about the TGI (UACC-257 melanoma) of the same compound?
**A.** Its TGI is greater than 100 µM.

**Q.** And the TGI (MDA-MB-435)?
**A.** Its TGI is greater than 100 µM.

**Q.** And the TGI (LOX IMVI melanoma)?
**A.** The TGI was greater than 100 µM.

**Q.** What about the TGI (NCI/ADR-RES ovarian) of the same compound?
**A.** The TGI was greater than 100 µM.

**Q.** And the TGI (UO-31 renal)?
**A.** Its TGI is greater than 100 µM.

**Q.** What about the TGI (HOP-92 NSCLC) of the same compound?
**A.** Its TGI is 27.3 µM.

**Q.** And the TGI (OVCAR-3 ovarian)?
**A.** The TGI was greater than 100 µM.

**Q.** What about the TGI (M14 melanoma) of the same compound?
**A.** The TGI was greater than 100 µM.

**Q.** And the TGI (IGROV1 ovarian)?
**A.** The TGI was greater than 100 µM.

**Q.** And the TGI (HT29 colon)?
**A.** Its TGI is greater than 100 µM.

**Q.** What about the TGI (MCF7 breast) of the same compound?
**A.** The TGI was greater than 100 µM.

**Q.** What about the TGI (RXF 393 renal) of the same compound?
**A.** Its TGI is 33.2 µM.

**Q.** What about the TGI (SNB-75 CNS) of the same compound?
**A.** The TGI was 6.2 µM.

**Q.** What about the TGI (ACHN renal) of the same compound?
**A.** The TGI was greater than 100 µM.

**Q.** And the TGI (MDA-MB-231 breast)?
**A.** The TGI was 38.5 µM.

**Q.** What about the TGI (SK-MEL-2 melanoma) of the same compound?
**A.** The TGI was greater than 100 µM.

**Q.** What about the TGI (SF-539 CNS) of the same compound?
**A.** The TGI was greater than 54.9 µM.

**Q.** What about the TGI (A498 renal) of the same compound?
**A.** The TGI was 9.14 µM.

**Q.** What about the TGI (K-562 leukemia) of the same compound?
**A.** The TGI was greater than 100 µM.

**Q.** What about the TGI (SF-295 CNS) of the same compound?
**A.** The TGI was greater than 100 µM.

**Q.** And the TGI (SK-MEL-28 melanoma)?
**A.** Its TGI is greater than 100 µM.

**Q.** And the TGI (RPMI-8226 leukemia)?
**A.** Its TGI is greater than 100 µM.

**Q.** What about the TGI (HCT-15 colon) of the same compound?
**A.** Its TGI is greater than 100 µM.

**Q.** What about the TGI (OVCAR-4 ovarian) of the same compound?
**A.** The TGI was greater than 100 µM.

**Q.** And the TGI (HOP-62 NSCLC)?
**A.** The TGI was 16.9 µM.

**Q.** What about the TGI (UACC-62 melanoma) of the same compound?
**A.** The TGI was greater than 100 µM.

**Q.** What about the TGI (OVCAR-5 ovarian) of the same compound?
**A.** The TGI was greater than 100 µM.

**Q.** And the TGI (MALME-3M melanoma)?
**A.** The TGI was greater than 100 µM.

**Q.** What about the TGI (NCI-H460 lung) of the same compound?
**A.** Its TGI is greater than 100 µM.

**Q.** What about the TGI (HCT-116 colon) of the same compound?
**A.** The TGI was greater than 44.9 µM.
